One compound from patent publication EP0456257A1, “Silver halide color photographic material” (FUJI PHOTO FILM CO., LTD., priority 1990, dated 1991) can be followed below.

The nature of this data set: Spectral absorption of yellow-colored coupler in methanol. Format: physicochemical. The protocol: The melting point of the compound was 269 to 272" C (decomposition). The structure of the compound was confirmed by H-NMR spectrum, mass spectrum and elementary analysis.
75 ml of methyl cellosolve and 26 ml of water were added to 10.1 g of Compound b (prepared as in Synthesis Example 1) and 10.7 g of sodium acetate. The diazonium solution was then added to the system with stirring under cooling with ice. After the dropwise addition was completed, the system was further stirred for 1 hour under ice-cooling and then for 2 hours at room temperature. The resulting crystal was filtered off. The crystal was then dispersed in 200 ml of methanol. A solution of 2.2 g of sodium hydroxide in 10 ml of water was added dropwise to the dispersion. The material was stirred for 3 hours. The system was neutralized with concentrated hydrochloric acid. The resulting crystal was washed with water and then with methanol, and then dried. The resulting crude crystal was purified with heat methanol in the same manner as in Synthesis Example 1 to obtain 14.8 g of Exemplary Coupler (YC-3). The melting point of the compound was 246 to 251 ° C (decomposition). The structure of the compound was confirmed by 'H-NMR spectrum, mass spectrum and elementary analysis.
13.0 g of Compound g prepared by the synthesis method as described in U.S. Patent 4,138,258 was dissolved in 40 ml of N,N-dimethylformamide. […]

The structures appear in SMILES notation.

Regarding `CCCCCCCCC(CCCCCC)COCCCNC(=O)c1cc(OCCOc2ccc(N=Nc3c(C)c(C#N)c(=O)n(-c4ccccc4C(=O)O)c3O)cc2)c2ccccc2c1O` (centres unmarked) [YC-30], the maximum absorption wavelength turned out to be 458.2 nm and the molecular extinction coefficient was 42,800.
